{"source": "patent US11446287B2", "about": "“Compounds and methods for EP300 or CBP modulation and indications therefor” (Opna Immuno-Oncology SA, priority 2019, dated 2022)"}
{"molecular_target": "T1, Recombinant human BRD4 containing dual bromodomains (BRD4-BD12 (1-477)) (Homo sapiens, UniProt O60885)", "T1 construct": "Recombinant human BRD4 containing dual bromodomains (BRD4-BD12 (1-477)); made in house; host or cells: E. coli BL21-CodonPlus (DE3), modified pET vector", "assay": "BRD4 Alphascreen binding assay", "outline": "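His-tagged human BRD4 tandem bromodomains (1-477, E. coli) incubated 1 h at room temperature with biotinylated tetra-acetylated H4 (1-21) peptide and compound in HEPES pH 7.5 buffer with 2 mM DTT. AlphaScreen signal read 30 min after adding beads (7.5 μg/ml); IC50 from four-parameter fit after normalization to controls.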", "units": {"IC50": "µM"}}
{"smiles": "COc1c(C(=O)O)cccc1-c1cn(C(C)c2ccccc2)c2cc(-c3c(C)noc3C)cnc12", "note": "(stereo not drawn) [P-0136, 3-(6-(3,5-dimethylisoxazol-4-yl)-1-(1-phenylethyl)-1H-pyrrolo[3,2-b]pyridin-3-yl)-2-methoxybenzoic acid]", "IC50": "0.0001 to 1"}
{"smiles": "Cc1noc(C)c1-c1cnc2c(c1)c(-c1ccc(F)c(C(=O)O)c1F)cn2[C@@H](C)c1ccccn1", "note": "[P-0125, (S)-3-(5-(3,5-dimethylisoxazol-4-yl)-1-(1-(pyridin-2-yl)ethyl)-1H-pyrrolo[2,3-b]pyridin-3-yl)-2,6-difluorobenzoic acid]", "IC50": "8 to 1000"}
{"smiles": "Cc1noc(C)c1-c1cnc2c(c1)c(-c1cccc(C(=O)O)c1)cn2CC1CC(F)(F)C1", "note": "[P-0101, 3-(1-((3,3-difluorocyclobutyl)methyl)-5-(3,5-dimethylisoxazol-4-yl)-1H-pyrrolo[2,3-b]pyridin-3-yl)benzoic acid]", "IC50": "8 to 1000"}
{"smiles": "Cc1noc(C)c1-c1cnc2c(c1)c(-c1ccc(C(=O)O)cc1C(F)(F)F)cn2[C@@H](C)c1ccccn1", "note": "[P-0116, (S)-4-(5-(3,5-dimethylisoxazol-4-yl)-1-(1-(pyridin-2-yl)ethyl)-1H-pyrrolo[2,3-b]pyridin-3-yl)-3-(trifluoromethyl)benzoic acid]", "IC50": "1 to 8"}
{"smiles": "Cc1noc(C)c1-c1cnc2c(c1)c(-c1ccc(C(=O)O)cn1)cn2C(C)c1ccccn1", "note": "(stereo not drawn) [P-0123, 6-(5-(3,5-dimethylisoxazol-4-yl)-1-(1-(pyridin-2-yl)ethyl)-1H-pyrrolo[2,3-b]pyridin-3-yl)nicotinic acid]", "IC50": "8 to 1000"}
{"smiles": "Cc1noc(C)c1-c1cnc2c(Cc3ccccc3Cl)cn(-c3c(Cl)cc(C(=O)O)cc3Cl)c2c1", "note": "[P-0131, 3,5-dichloro-4-(3-(2-chlorobenzyl)-6-(3,5-dimethylisoxazol-4-yl)-1H-pyrrolo[3,2-b]pyridin-1-yl)benzoic acid]", "IC50": "1 to 8"}
{"smiles": "Cc1noc(C)c1-c1cnc2c(C(=O)c3cccc(OC(F)F)c3)cn(-c3ccnc(C(=O)O)c3)c2c1", "note": "[P-0099, 4-(3-(3-(difluoromethoxy)benzoyl)-6-(3,5-dimethylisoxazol-4-yl)-1H-pyrrolo[3,2-b]pyridin-1-yl)picolinic acid]", "IC50": "1 to 8"}
{"smiles": "Cc1noc(C)c1-c1cnc2c(CC3CC3)cn(-c3ccc(C(=O)O)cn3)c2c1", "note": "[P-0010, 6-(3-(cyclopropylmethyl)-6-(3,5-dimethylisoxazol-4-yl)-1H-pyrrolo[3,2-b]pyridin-1-yl)nicotinic acid]", "IC50": "8 to 1000"}
{"smiles": "Cc1noc(C)c1-c1cnc2c(CC3CCC3)cn(-c3ccc(O)nc3)c2c1", "note": "[P-0143, 5-(3-(cyclobutylmethyl)-6-(3,5-dimethylisoxazol-4-yl)-1H-pyrrolo[3,2-b]pyridin-1-yl)pyridin-2-ol]", "IC50": "8 to 1000"}
